Literature values in US20070015720A1, “Modulation of endogenous AICAR levels for the treatment of diabetes and obesity” (CytRx Corporation, priority 2005, published 2007).

Experiments:
[1] = tested on: obese Zucker (fa/fa) rats; conditions: long term treatment, high doses
[2] = mice, murine pouch model of inflammation
[3] = low dose, psoriasis patients, day of dosing

NC(=O)c1ncn([C@@H]2O[C@H](CO)[C@@H](O)[C@H]2O)c1N [AICAR, 5-aminoimidazole-4-carboxamide ribonucleoside]
non-insulin stimulated glucose uptake (3T3L1 adipocytes): increase | fasting concentrations of glucose and insulin [1]: decrease | plasma triglyceride and free fatty acid levels [1]: reduce | systolic blood pressure [1]: decrease | adipocyte differentiation (adipocytes): inhibits adipocyte differentiation at an early stage

CN(Cc1cnc2nc(N)nc(N)c2n1)c1ccc(C(=O)N[C@@H](CCC(=O)O)C(=O)O)cc1 [methotrexate]
increase of AICAR-monophosphate in splenocytes [2]: three-fold | urinary excretion of aminoimidazole carboxamide (AICA) [3]: statistically significant increase

O=C(O)c1cc(/N=N/c2ccc(S(=O)(=O)Nc3ccccn3)cc2)ccc1O [sulfasalazine]
increase of AICAR-monophosphate in splenocytes [2]: three-fold
